Data: patent publication US12466839B2, “Allosteric AKT inhibitors for use in the treatment of Hereditary Hemorrhagic Telangiectasia” (VADERIS THERAPEUTICS AG, priority 2020, dated 2025)

How the values were obtained:
[1] = target: Cav1.2 (Homo sapiens, UniProt Q13936); experiment: Cardiac ion channel profile; format: cell-based
[2] = target: T1, A3 (Homo sapiens, UniProt P0DMS8); experiment: Millipore Drug Discovery Safety and Liability Panel; format: cell-based
T1 construct: purchased Millipore

[3] = test system: AKT kinase in Pi3Kα or PTEN mutant cells lines (e.g. MCF7, BT474 or LnCAP); experiment: AKT kinase inhibition in Pi3Kα or PTEN mutant cell lines; format: cell-based; settings: read-out: IC50 range for AKT kinase inhibition
[4] = target: T2, ETA (Homo sapiens, UniProt P25101); experiment: Millipore Drug Discovery Safety and Liability Panel; format: cell-based
T2 construct: purchased Millipore
T2 sequence (P25101 21-427): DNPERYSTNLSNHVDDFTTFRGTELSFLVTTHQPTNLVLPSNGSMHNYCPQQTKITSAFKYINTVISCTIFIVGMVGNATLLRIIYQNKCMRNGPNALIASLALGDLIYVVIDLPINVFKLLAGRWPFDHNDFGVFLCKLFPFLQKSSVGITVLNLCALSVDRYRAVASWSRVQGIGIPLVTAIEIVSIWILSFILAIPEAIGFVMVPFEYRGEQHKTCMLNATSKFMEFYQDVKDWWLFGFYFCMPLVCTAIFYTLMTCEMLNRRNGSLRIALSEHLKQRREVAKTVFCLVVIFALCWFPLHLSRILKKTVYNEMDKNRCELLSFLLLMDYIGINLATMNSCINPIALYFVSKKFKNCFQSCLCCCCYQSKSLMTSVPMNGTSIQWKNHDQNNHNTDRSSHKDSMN

[5] = target: AKT3 (Homo sapiens, UniProt Q9Y243); experiment: Biochemical kinase assay
Sequence of AKT3 (Q9Y243 whole entry): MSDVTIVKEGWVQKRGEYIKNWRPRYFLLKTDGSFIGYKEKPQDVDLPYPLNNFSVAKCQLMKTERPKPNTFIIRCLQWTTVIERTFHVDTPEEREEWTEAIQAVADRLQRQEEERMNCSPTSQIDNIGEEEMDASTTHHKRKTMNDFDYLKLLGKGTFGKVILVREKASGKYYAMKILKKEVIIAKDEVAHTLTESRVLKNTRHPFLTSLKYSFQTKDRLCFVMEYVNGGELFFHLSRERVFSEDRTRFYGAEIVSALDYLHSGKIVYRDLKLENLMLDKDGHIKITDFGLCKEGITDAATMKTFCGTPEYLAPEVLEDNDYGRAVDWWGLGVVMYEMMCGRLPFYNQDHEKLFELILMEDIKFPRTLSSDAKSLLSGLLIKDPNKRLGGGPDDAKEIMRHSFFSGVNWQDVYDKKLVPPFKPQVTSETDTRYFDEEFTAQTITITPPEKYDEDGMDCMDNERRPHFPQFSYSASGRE

[6] = target: T3, EP2 (Homo sapiens, UniProt P43116); experiment: Millipore Drug Discovery Safety and Liability Panel; format: cell-based
T3 construct: purchased Millipore
T3 sequence (P43116 whole entry): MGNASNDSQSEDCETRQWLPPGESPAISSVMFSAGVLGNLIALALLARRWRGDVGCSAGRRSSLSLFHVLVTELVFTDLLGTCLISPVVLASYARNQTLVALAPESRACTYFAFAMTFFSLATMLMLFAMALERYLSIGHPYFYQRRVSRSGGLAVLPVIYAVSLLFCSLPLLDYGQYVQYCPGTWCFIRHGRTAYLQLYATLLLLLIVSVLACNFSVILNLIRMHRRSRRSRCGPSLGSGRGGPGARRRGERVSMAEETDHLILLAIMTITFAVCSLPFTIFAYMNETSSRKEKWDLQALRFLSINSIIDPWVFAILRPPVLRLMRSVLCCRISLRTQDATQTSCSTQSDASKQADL

[7] = target: T4, PTH1 (Homo sapiens, UniProt Q03431); experiment: as above; format: cell-based
T4 construct: Millipore
T4 sequence (Q03431 27-593): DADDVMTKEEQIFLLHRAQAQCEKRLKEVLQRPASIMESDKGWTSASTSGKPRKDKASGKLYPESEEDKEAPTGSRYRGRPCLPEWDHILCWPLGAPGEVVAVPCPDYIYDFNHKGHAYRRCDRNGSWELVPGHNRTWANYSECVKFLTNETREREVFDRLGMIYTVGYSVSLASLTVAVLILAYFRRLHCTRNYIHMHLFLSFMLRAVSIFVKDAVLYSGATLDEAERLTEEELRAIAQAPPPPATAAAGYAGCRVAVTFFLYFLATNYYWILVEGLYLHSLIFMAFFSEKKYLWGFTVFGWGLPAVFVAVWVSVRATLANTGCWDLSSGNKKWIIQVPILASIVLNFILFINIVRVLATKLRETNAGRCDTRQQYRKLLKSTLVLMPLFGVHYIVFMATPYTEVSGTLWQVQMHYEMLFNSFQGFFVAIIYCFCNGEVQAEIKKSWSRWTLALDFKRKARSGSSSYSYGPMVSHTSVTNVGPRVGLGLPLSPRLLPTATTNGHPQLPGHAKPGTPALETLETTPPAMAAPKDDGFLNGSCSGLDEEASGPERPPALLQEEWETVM

[8] = target: T5, H2 (Homo sapiens, UniProt P25021); experiment: as above; format: cell-based
T5 construct: purchased Millipore
T5 sequence (P25021 whole entry): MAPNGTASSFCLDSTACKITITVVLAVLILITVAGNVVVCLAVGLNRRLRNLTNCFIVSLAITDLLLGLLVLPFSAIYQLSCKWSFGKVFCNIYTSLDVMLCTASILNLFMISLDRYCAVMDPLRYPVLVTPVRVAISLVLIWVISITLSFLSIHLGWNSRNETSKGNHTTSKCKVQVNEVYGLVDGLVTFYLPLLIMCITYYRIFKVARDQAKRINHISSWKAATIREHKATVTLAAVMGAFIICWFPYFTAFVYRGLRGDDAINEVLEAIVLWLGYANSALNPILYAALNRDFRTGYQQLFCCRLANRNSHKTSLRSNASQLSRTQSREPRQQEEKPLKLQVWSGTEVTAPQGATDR

[9] = target: T6, GPR14 (Homo sapiens, UniProt Q9UKP6); experiment: as above; format: cell-based
T6 construct: purchased Millipore
T6 sequence (Q9UKP6 whole entry, species assumed): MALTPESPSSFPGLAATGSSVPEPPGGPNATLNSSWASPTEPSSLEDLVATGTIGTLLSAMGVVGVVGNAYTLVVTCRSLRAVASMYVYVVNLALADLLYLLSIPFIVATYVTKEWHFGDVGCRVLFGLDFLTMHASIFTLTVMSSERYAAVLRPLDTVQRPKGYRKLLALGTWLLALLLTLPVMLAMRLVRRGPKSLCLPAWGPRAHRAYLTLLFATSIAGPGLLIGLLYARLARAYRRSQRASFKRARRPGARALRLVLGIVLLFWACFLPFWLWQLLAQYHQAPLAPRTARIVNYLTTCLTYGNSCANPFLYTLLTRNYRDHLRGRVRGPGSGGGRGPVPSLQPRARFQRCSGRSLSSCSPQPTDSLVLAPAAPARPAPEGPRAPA

[10] = target: T7, NMU1 (Homo sapiens, UniProt Q9HB89); experiment: as above; format: cell-based
T7 construct: Millipore

[11] = target: T8, CB1 (Homo sapiens, UniProt P21554); experiment: as above; format: cell-based
T8 construct: purchased Millipore
T8 sequence (P21554 whole entry): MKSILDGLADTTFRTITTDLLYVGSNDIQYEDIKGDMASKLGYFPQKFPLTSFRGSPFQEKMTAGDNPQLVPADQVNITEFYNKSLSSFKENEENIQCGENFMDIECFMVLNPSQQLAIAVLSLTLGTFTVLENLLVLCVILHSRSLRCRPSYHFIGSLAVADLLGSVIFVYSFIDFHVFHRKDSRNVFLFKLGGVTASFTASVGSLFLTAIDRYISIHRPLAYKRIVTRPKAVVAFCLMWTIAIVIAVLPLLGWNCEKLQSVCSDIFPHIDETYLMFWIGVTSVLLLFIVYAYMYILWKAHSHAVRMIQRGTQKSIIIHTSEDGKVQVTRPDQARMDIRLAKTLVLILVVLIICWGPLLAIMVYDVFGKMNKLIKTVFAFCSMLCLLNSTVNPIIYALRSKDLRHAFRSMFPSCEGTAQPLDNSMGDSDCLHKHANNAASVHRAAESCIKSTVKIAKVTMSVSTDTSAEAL

[12] = target: T9, NTR1 (Homo sapiens, UniProt P30989); experiment: as above; format: cell-based
T9 construct: Millipore
T9 sequence (P30989 whole entry, species assumed): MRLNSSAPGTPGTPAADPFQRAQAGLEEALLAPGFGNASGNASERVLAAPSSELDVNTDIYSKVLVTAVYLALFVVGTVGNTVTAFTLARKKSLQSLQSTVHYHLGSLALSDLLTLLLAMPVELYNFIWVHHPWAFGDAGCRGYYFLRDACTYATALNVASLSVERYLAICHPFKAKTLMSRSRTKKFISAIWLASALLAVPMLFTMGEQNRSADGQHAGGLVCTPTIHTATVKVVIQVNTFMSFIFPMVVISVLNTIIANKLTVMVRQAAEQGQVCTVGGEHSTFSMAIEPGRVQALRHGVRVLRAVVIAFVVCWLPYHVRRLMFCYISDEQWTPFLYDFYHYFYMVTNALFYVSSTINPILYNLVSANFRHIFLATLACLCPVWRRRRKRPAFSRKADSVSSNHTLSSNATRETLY

[13] = test system: tumor xenograft; experiment: Tumor xenograft model; format: in vivo
[14] = test system: AKT; experiment: AKT inhibition in primary lung endothelial cells with normal Eng expression (western blot); format: cell-based; settings: Mus musculus, Endothelial cell; lung ECs from controls with normal level of Eng expression; VEGF-A stimulation
Method: Lungs from Engflox/flox pups were surgically removed, rinsed in ice-cold DMEM and endothelial cells were isolated as described in Galaris et al., (2021) “In vitro Three-Dimensional Sprouting Assay of Angiogenesis using Mouse Embryonic Stem Cells for Vascular Disease Modeling and Drug Testing” J Vis Exp (171). In summary, tissues were minced by the use of scissors, digested in DMEM-3 mg·ml-1 Collagenase A (10103586001, Roche) for 15 min at 37° C. and then filtered through a 70-μm strainer. The cell suspension was centrifuged at 200 g for 5 min and CD45+ cells were removed using Dynabeads sheep anti-Rat IgG (11035, Invitrogen) coated with rat anti-mouse CD45 antibody (550539, BD Pharmigen). Endothelial cells were sorted using Dynabeads sheep anti-Rat IgG (11035, Invitrogen) coated with rat anti-mouse PECAM1 antibody (550274, BD Pharmigen) according to the manufacturer's instructions. After washing 5 times with DMEM-0.1% BSA, cells were seeded in 6 well plates. Lung and liver ECs were maintained for two-three passages in Endothelial Cell Growth Medium 2 (C-22011, PromoCell) complemented with Fetal Calf Serum, Human Epidermal Growth Factors, Basic Fibroblast Growth Factor, Insulin like Growth Factor, Human Vascular Endothelial Growth Factor-165, Ascorbic acid, Heparin and Hydrocortisone (C-39211, SupplementPack EC GM2, PromoCell). […]

[15] = target: T10, NK3 (Homo sapiens, UniProt P29371); experiment: Millipore Drug Discovery Safety and Liability Panel; format: cell-based
T10 construct: purchased Millipore
T10 sequence (P29371 whole entry): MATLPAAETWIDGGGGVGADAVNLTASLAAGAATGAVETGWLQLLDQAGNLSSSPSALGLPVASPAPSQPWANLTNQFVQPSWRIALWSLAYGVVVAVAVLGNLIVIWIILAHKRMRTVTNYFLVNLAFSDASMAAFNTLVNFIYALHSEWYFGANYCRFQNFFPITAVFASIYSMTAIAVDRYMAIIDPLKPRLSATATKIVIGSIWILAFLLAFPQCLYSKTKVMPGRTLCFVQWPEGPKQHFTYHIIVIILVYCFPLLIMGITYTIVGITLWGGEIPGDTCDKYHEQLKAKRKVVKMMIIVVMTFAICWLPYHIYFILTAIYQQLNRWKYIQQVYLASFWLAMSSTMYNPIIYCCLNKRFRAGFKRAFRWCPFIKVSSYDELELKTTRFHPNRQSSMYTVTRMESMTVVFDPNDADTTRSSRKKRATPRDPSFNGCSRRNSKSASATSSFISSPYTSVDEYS

[16] = target: T11, 5-HT2A (Homo sapiens, UniProt P28223); experiment: as above; format: cell-based
T11 construct: purchased Millipore
T11 sequence (P28223 whole entry): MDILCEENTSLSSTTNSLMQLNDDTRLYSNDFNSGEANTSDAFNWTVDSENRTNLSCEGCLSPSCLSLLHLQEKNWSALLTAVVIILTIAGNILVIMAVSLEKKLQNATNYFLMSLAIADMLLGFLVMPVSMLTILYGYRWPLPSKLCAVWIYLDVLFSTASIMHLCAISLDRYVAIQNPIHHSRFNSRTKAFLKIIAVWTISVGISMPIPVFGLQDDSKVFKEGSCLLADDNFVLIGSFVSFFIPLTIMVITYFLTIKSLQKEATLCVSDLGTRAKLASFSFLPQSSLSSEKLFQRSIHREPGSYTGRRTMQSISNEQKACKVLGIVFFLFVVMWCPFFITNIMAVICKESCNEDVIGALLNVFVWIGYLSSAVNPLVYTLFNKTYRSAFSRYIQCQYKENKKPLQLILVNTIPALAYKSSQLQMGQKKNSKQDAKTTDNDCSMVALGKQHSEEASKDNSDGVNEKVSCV

[17] = target: T12, GAL1 (Homo sapiens, UniProt P47211); experiment: as above; format: cell-based
T12 construct: purchased Millipore
T12 sequence (P47211 whole entry): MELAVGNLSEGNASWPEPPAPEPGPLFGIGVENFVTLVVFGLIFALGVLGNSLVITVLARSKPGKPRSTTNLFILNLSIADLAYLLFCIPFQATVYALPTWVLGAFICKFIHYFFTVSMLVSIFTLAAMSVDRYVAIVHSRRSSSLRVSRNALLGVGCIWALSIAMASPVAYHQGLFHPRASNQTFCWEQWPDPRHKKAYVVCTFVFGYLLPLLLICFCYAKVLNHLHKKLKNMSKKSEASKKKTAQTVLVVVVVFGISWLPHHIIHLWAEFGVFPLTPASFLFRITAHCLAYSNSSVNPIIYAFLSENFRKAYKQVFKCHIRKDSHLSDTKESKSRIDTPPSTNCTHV

[18] = read-out: AGONIST mean % increase in activity
[19] = read-out: ANTAGONIST mean % inhibition

`CCN1C(=O)COc2nc(-c3ccc(C4(N)CC(O)C4)cc3)c(-c3ccccc3)cc21.O=C(O)C(O)C(O)C(=O)O` [VAD044, 6-(4-(1-amino-3-hydroxycyclobutyl)phenyl)-1-ethyl-7-phenyl-1H-pyrido[2,3-b][1,4]oxazin-2(3H)-one L-tartrate] gave an inhibition at 10 µM [1] of less than 25%, an activation at 10 µM [2, 18] of 0.2% and an inhibition at 10 µM [2, 19] of 28.5%. It also gave an IC50 [3] of 50 to 130 nM, an activation at 10 µM ([4]; ETA, 10 μM, read-out: AGONIST mean % increase in activity) of -0.4% and an inhibition at 10 µM [4, 19] of 10.5%. The IC50 [5] was greater than 500 nM, the EC50 ([5]; read-out: EC50 value for the AKT3 isoform) was greater than 500 nM and the activation at 10 µM ([6]; EP2, 10 μM, read-out: AGONIST mean % increase in activity) was -1%. For the same molecule, the inhibition at 10 µM [6, 19] was -0.5%, the activation at 10 µM ([7]; PTH1, 10 μM, read-out: AGONIST mean % increase in activity) was -1.1% and the inhibition at 10 µM [7, 19] was -2.5%. For the same molecule, the activation at 10 µM ([8]; H2, 10 μM, read-out: AGONIST mean % increase in activity) was -0.2%, the inhibition at 10 µM [8, 19] was -1.8% and the activation at 10 µM [9, 18] was 29.5%. For the same molecule, the inhibition at 10 µM [9, 19] was 52.9%, the activation at 10 µM ([10]; NMU1, 10 μM, read-out: AGONIST mean % increase in activity) was -3.1% and the inhibition at 10 µM [10, 19] was 5.5%. The activation at 10 µM ([11]; CB1, 10 μM, read-out: AGONIST mean % increase in activity) was -0.5%, the inhibition at 10 µM [11, 19] was -4.1% and the activation at 10 µM ([12]; NTR1, 10 μM, read-out: AGONIST mean % increase in activity) was -0.6%. For the same molecule, the inhibition at 10 µM [12, 19] was 6.1%, the “minimal effective dose in vivo” value [13] was 30 mg/kg and the IC50 [14] was 55 nM. For the same molecule, the activation at 10 µM ([15]; NK3, 10 μM, read-out: AGONIST mean % increase in activity) was -0.4%, the inhibition at 10 µM [15, 19] was 16.9% and the activation at 10 µM [16, 18] was 1.3%. For the same molecule, the inhibition at 10 µM [16, 19] was -0.7%, the activation at 10 µM ([17]; GAL1, 10 μM, read-out: AGONIST mean % increase in activity) was 0.3% and the inhibition at 10 µM [17, 19] was 3.4%.
